Laboratory results from patent US20150005288A1, “SUBSTITUTED PHENYLIMIDAZOPYRAZOLES AND USE THEREOF” (Bayer Intellectual Property GmbH, priority 2012, published 2015).

Target: T1, intracellular domain of human Tie2 (GST fusion protein) (Homo sapiens, UniProt Q02763)
T1 construct: intracellular domain of human Tie2 (amino acids 776-1124); made in house; host or cells: Baculovirus-infected insect cells (Hi5)
Assay: Tie2 kinase assay (Tie2-TR-FRET)
Assay type: biochemical
Conditions: ATP concentration 1 mM, in some cases means of several independent determinations
How it was run: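 GST fusion of human Tie2 intracellular domain (aa 776-1124, Hi5-expressed), ~30 ng/ml, pre-incubated 15 min with compound, then 1 mM ATP and 1 μM biotinylated peptide, 60 min at 22 °C, pH 7. TR-FRET (Eu anti-phosphotyrosine/streptavidin-XL665, 665/620 nm ratio). […] 20 μM–0.073 nM in duplicate; IC50 by 4-parameter fit.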

T1 sequence (Q02763 776-1124): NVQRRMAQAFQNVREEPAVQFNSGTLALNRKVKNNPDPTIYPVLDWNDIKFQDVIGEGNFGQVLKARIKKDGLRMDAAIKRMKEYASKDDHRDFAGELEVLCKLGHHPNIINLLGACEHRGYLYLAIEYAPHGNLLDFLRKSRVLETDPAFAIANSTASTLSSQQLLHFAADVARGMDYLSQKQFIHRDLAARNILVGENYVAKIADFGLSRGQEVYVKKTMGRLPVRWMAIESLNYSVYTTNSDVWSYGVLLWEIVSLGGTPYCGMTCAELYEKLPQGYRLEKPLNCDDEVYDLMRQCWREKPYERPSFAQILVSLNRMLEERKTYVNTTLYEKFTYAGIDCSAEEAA

Compound	IC50 [nM]
Cc1ccc(NC(=O)c2cc(F)cc(S(F)(F)(F)(F)F)c2)cc1-n1ccn2nc(-c3cncs3)cc12 [Example 173, 3-Fluoro-N-{4-methyl-3-[6-(1,3-thiazol-5-yl)-1H-imidazo[1,2-b]pyrazol-1-yl]phenyl}-5-(pentafluoro-λ^6-sulphanyl)benzamide]	9.3
COc1ccc(NC(=O)c2cc(C#N)cc(S(F)(F)(F)(F)F)c2)cc1-n1ccn2nc(-c3cccnc3)cc12 [Example 99, 3-Cyano-N-{4-methoxy-3-[6-(pyridin-3-yl)-1H-imidazo[1,2-b]pyrazol-1-yl]phenyl}-5-(pentafluoro-λ^6-sulphanyl)benzamide]	240
Cc1ccc(NC(=O)c2cccc(S(F)(F)(F)(F)F)c2)c(C)c1-n1ccn2nc(-c3cccnc3)cc12 [Example 119, N-{2,4-Dimethyl-3-[6-(pyridin-3-yl)-1H-imidazo[1,2-b]pyrazol-1-yl]phenyl}-3-(pentafluoro-λ^6-sulphanyl)benzamide]	110
Cc1cc(C(=O)Nc2ccc(C)c(-n3ccn4nc(-c5cccnc5)cc34)c2)cc(S(N)(=O)=O)c1 [Example 124, 3-Methyl-N-{4-methyl-3-[6-(pyridin-3-yl)-1H-imidazo[1,2-b]pyrazol-1-yl]phenyl}-5-sulphamoyl-benzamide]	297
N#Cc1cc(C(=O)Nc2ccc(F)c(-n3ccn4nc(-c5cccnc5)cc34)c2)cc(S(F)(F)(F)(F)F)c1 [Example 71, 3-Cyano-N-{4-fluoro-5-[6-(pyridin-3-yl)-1H-imidazo[1,2-b]pyrazol-1-yl]phenyl}-3-(pentafluoro-λ^6-sulphanyl)benzamide]	34
Cc1ccc(NC(=O)c2cc(CN3CCNCC3)cc(S(F)(F)(F)(F)F)c2)cc1-n1ccn2nc(-c3cccnc3)cc12 [Example 35, N-{4-Methyl-3-[6-(pyridin-3-yl)-1H-imidazo[1,2-b]pyrazol-1-yl]phenyl}-3-(pentafluoro-λ^6-sulphanyl)-5-(piperazin-1-ylmethyl)benzamide]	0.5
Cc1cc(C)c(-n2ccn3nc(-c4cccnc4)cc23)cc1NC(=O)c1cccc(C(C)(C)O)c1 [Example 141, N-{2,4-Dimethyl-5-[6-(pyridin-3-yl)-1H-imidazo[1,2-b]pyrazol-1-yl]phenyl}-3-(2-hydroxypropan-2-yl)benzamide]	62
Cc1cc(C)c(-n2ccn3nc(-c4cccnc4)cc23)cc1NC(=O)c1cc(C#N)cc(C(C)(C)C)c1 [Example 114, 3-tert-Butyl-5-cyano-N-{2,4-dimethyl-5-[6-(pyridin-3-yl)-1H-imidazo[1,2-b]pyrazol-1-yl]phenyl}-benzamide]	0.3
Cc1ccc(NC(=O)c2cc(Cl)cc(S(F)(F)(F)(F)F)c2)cc1-n1ccn2nc(-c3cncs3)cc12 [Example 174, 3-Chloro-N-{4-methyl-3-[6-(1,3-thiazol-5-yl)-1H-imidazo[1,2-b]pyrazol-1-yl]phenyl}-5-(pentafluoro-λ^6-sulphanyl)benzamide]	2.8
Cc1cc(C)c(-n2ccn3nc(-c4cccnc4)cc23)cc1NC(=O)c1cccc(SC(F)(F)F)c1 [Example 126, N-{2,4-Dimethyl-5-[6-(pyridin-3-yl)-1H-imidazo[1,2-b]pyrazol-1-yl]phenyl}-3-[(trifluoromethyl)-sulphanyl]benzamide]	1.2
Cc1ccc(NC(=O)c2cc(N3CCN(C)CC3)cc(C(C)(C)C)c2)cc1-n1ccn2nc(-c3cn[nH]c3)cc12 [Example 8, 3-tert-Butyl-5-(4-methylpiperazin-1-yl)-N-{4-methyl-3-[6-(1H-pyrazol-4-yl)-1H-imidazo[1,2-b]-pyrazol-1-yl]phenyl}benzamide]	1.9
Cc1ccc(NC(=O)c2cccc(C(F)(F)F)c2)cc1-n1ccn2nc(-c3cn[nH]c3)cc12 [Example 5, N-{4-Methyl-3-[6-(1H-pyrazol-4-yl)-1H-imidazo[1,2-b]pyrazol-1-yl]phenyl}-3-(trifluoromethyl)-benzamide]	380
Cc1ccc(NC(=O)c2cc(N3CCNCC3)cc(S(F)(F)(F)(F)F)c2)cc1-n1cc(C)n2nc(-c3cn[nH]c3)cc12 [Example 10, N-{4-Methyl-3-[3-methyl-6-(1H-pyrazol-4-yl)-1H-imidazo[1,2-b]pyrazol-1-yl]phenyl}-3-(pentafluoro-λ^6-sulphanyl)-5-(piperazin-1-yl)benzamide]	0.3
Cc1ccc(NC(=O)c2cc(C#N)nc(C(C)(C)C)c2)cc1-n1ccn2nc(-c3cccnc3)cc12 [Example 93, 2-tert-Butyl-6-cyano-N-{4-methyl-3-[6-(pyridin-3-yl)-1H-imidazo[1,2-b]pyrazol-1-yl]phenyl}-isonicotinamide]	19
Cc1ccc(NC(=O)c2cccc(C(F)(F)F)c2)cc1-n1ccn2nc(-c3cccnc3)cc12 [Example 39, N-{4-Methyl-3-[6-(pyridin-3-yl)-1H-imidazo[1,2-b]pyrazol-1-yl]phenyl}-3-(trifluoromethyl)-benzamide]	320
Cc1cc(C)c(-n2ccn3nc(-c4cccnn4)cc23)cc1NC(=O)c1cc(Br)cc(S(F)(F)(F)(F)F)c1 [Example 170, 3-Bromo-N-{2,4-dimethyl-5-[6-(pyridazin-3-yl)-1H-imidazo[1,2-b]pyrazol-1-yl]phenyl}-5-(pentafluoro-λ^6-sulphanyl)benzamide]	1.2
COc1ccc(S(F)(F)(F)(F)F)cc1C(=O)Nc1ccc(C)c(-n2ccn3nc(-c4cccnc4)cc23)c1 [Example 90, 2-Methoxy-N-{4-methyl-3-[6-(pyridin-3-yl)-1H-imidazo[1,2-b]pyrazol-1-yl]phenyl}-5-(pentafluoro-λ^6-sulphanyl)benzamide]	91
COc1cc(OC)cc(C(=O)Nc2ccc(C)c(-n3ccn4nc(-c5cccnc5)cc34)c2)c1 [Example 63, 3,5-Dimethoxy-N-{4-methyl-3-[6-(pyridin-3-yl)-1H-imidazo[1,2-b]pyrazol-1-yl]phenyl}benzamide]	770
Cc1ccc(NC(=O)c2cc(CN3CC[C@H](O)C3)cc(S(F)(F)(F)(F)F)c2)cc1-n1ccn2nc(-c3cccnc3)cc12 [Example 34, 3-{[(3S)-3-Hydroxypyrrolidin-1-yl]methyl}-N-{4-methyl-3-[6-(pyridin-3-yl)-1H-imidazo[1,2-b]-pyrazol-1-yl]phenyl}-5-(pentafluoro-λ^6-sulphanyl)benzamide]	2.1
COc1ccc(NC(=O)c2cccc(S(F)(F)(F)(F)F)c2)cc1-n1ccn2nc(-c3cccnc3)cc12 [Example 72, N-{4-Methoxy-3-[6-(pyridin-3-yl)-1H-imidazo[1,2-b]pyrazol-1-yl]phenyl}-3-(pentafluoro-λ^6-sulphanyl)benzamide]	350
Cc1ccc(NC(=O)c2cc(CN3CCN(C)CC3)cc(S(F)(F)(F)(F)F)c2)cc1-n1ccn2nc(-c3cccnc3)cc12 [Example 36, 3-[(4-Methylpiperazin-1-yl)methyl]-N-{4-methyl-3-[6-(pyridin-3-yl)-1H-imidazo[1,2-b]pyrazol-1-yl]phenyl}-5-(pentafluoro-λ^6-sulphanyl)benzamide]	0.3
Cc1ccc(NC(=O)c2cccc(C(C)(C)C)c2)cc1-n1ccn2nc(-c3cn[nH]c3)cc12 [Example 7, 3-tert-Butyl-N-{4-methyl-3-[6-(1H-pyrazol-4-yl)-1H-imidazo[1,2-b]pyrazol-1-yl]phenyl}-benzamide]	105
Cc1ccc(NC(=O)c2cccc(OC(C)C)c2)cc1-n1ccn2nc(-c3cccnc3)cc12 [Example 60, N-{4-Methyl-3-[6-(pyridin-3-yl)-1H-imidazo[1,2-b]pyrazol-1-yl]phenyl}-3-(propan-2-yloxy)-benzamide]	125
O=C(Nc1cccc(-n2ccn3nc(-c4cccnc4)cc23)c1O)c1cccc(S(F)(F)(F)(F)F)c1 [Example 82, N-{2-Hydroxy-3-[6-(pyridin-3-yl)-1H-imidazo[1,2-b]pyrazol-1-yl]phenyl}-3-(pentafluoro-λ^6-sulphanyl)benzamide]	250
Cc1cc(C)c(-n2ccn3nc(-c4cccnc4)cc23)cc1NC(=O)c1cccc(N2CCC(F)(F)CC2)c1 [Example 138, 3-(4,4-Difluoropiperidin-1-yl)-N-{2,4-dimethyl-5-[6-(pyridin-3-yl)-1H-imidazo[1,2-b]pyrazol-1-yl]phenyl}benzamide]	65
O=C(Nc1ccc(F)c(-n2ccn3nc(-c4cccnc4)cc23)c1)c1cccc(S(F)(F)(F)(F)F)c1 [Example 70, N-{4-Fluoro-5-[6-(pyridin-3-yl)-1H-imidazo[1,2-b]pyrazol-1-yl]phenyl}-3-(pentafluoro-λ^6-sulphanyl)benzamide]	105
